Measured values: article PMC10323112 (Cancer Science, 2023)

Tests used:
in vitro [1] = type: in vitro ADME; conditions: CD-1, mouse, brain homogenate
in vitro [2] = conditions: human, Caco-2
in vitro [3] = conditions: CD-1, mouse, plasma
[4] = 30 mg/kg
in vivo = conditions: female, Balbc nude, mouse, 30 mg/kg
NCI-H358 (KRAS^G12C) = assay: Proliferation assay; type: cell-based, human; conditions: NCI-H358 (Figure S2D)
NCI-H1993 (KRAS^WT) = assay: Proliferation assay; type: cell-based, human; conditions: NCI-H1993 (Figure S2D)
[5] = tested on: p-AKT in NCI-H1993 (KRAS^WT, PIK3CA^WT) cells; assay: Basal p-AKT assay; type: cell-based, human; conditions: NCI‐H1993 (KRAS^WT, PIK3CA^WT) cell line
[6] = tested on: p-AKT in NCI-H358 (KRAS^G12C, PIK3CA^WT) cells; assay: Basal p-AKT assay; type: cell-based, human; conditions: NCI‐H358 (KRAS^G12C, PIK3CA^WT) cell line

Compound: C=C(F)C(=O)N1CCN(c2nc(OC[C@@H]3CCCN3C)nc3c2CCN(c2cccc4cccc(Cl)c24)C3)C[C@@H]1CC#N [Adagrasib, adagrasib]
- fraction unbound at 5 h, 1 μM (in vitro [1]): 0.001
- Papp A→B at 120 min, 10 μM (in vitro [2]): 0.8 ×10⁻⁶ cm/s
- fraction unbound at 5 h, 1 μM (in vitro [3]): 0.002
- Unbound brain AUC ([4]; AUCbrain × fu,brain): 0.0009 µM·h
- Unbound plasma AUC ([4]; AUCplasma × fu,plasma): 0.089 µM·h
- AUC (in vivo): 44.3 µM·h
- Kp uu (in vivo): 0.01

Compound: C[C@H](Nc1ccc2c(c1)OCCn1cc(N3C(=O)OC[C@H]3C(F)F)nc1-2)C(N)=O [GDC-0077]
- inhibitory effect on cell proliferation (NCI-H358 (KRAS^G12C)): very weak inhibitory effect
- inhibitory effect on cell proliferation (NCI-H1993 (KRAS^WT)): very weak inhibitory effect
- effect on p‐AKT level [5]: reduced
- effect on p‐AKT level [6]: reduced
